Assay results from US20180177891A1, “Nanoparticle-Based Antigen Specific Immunotherapy” (Midatech Limited, priority 2015, published 2018).
Where no end group is shown, it is not given here.

Legend:
[1] = tested on: OT-II (ovalbumin peptide (323-339) specific) CD4+ T cells; test: OT-II T cell proliferation in draining LN after intradermal injection; format: in vivo, C57BL/6 mice; settings: 3 days later, flow cytometry
Experimental: PBS, ovalbumin peptide (323-339) or ovalbumin peptide (323-339) containing GNPs (NP167, NP168) were injected intradermally in C57BL/6 mice 24 h after i.v. administration of fluorescent cell trace violet (CTV)-labelled OT-II (ovalbumin peptide (323-339) specific) CD4+ T cells. 3 days later, draining LN cells were isolated and studied by flow cytometry. The presence of OT-II cells in the LN was shown by the appearance of cells of that are […] CD45.1^+Vα2^+ and high CTV fluorescence (right hand edge of square). Proliferation of OT-II cells was seen as dilution of the CTV fluorescence, bringing the cells progressively at each cell cycle into the blue box. The percentage of cells with the proliferation square is shown. […] Each plot represents the results from a different mouse.
PBS, ovalbumin peptide (323-339), or ovalbumin peptide (323-339) coupled GNPs (NP167, NP168) were administered intradermally to C57BL-6 mice, at the same time as i.v. administration of fluorescent cell trace violet (CTV) labelled OT-II (Ovalbumin peptide specific) CD4 positive T cells. Draining LN and spleen cells were harvested 3 days after ovalbumin (323-339) peptide administration, and studied by flow cytometry. Where fluorescent cells are seen but the level of fluorescence has been reduced, this implies that they have recognised their target peptide on APCs in that tissue and undergone cell division.

BDC-2.5 CD4+ T cells = test: BDC-2.5 CD4+ T cell proliferation in LNs and spleen after injection; format: in vivo, murine
From the text: Increased proliferation is seen with GNPs coupled to antigen both in the draining and distant LN sites and spleen.
A similar in vivo protocol was designed, using fluorescently labelled indicator CD4^+ T cells (BDC-2.5, specific for chromograninA 342-355 found in pancreatic beta cells) and the peptide “BDC-2.5 mimotope” (a peptide of similar configuration to this epitope, that mimics the chromogranin A 342-355 peptide) coupled to GNPs linked to either mannose C2 or glucose C2.
A preliminary in vivo experiment was carried out using the murine BDC-2.5 mimotope peptide and fluorescently-labelled indicator CD4 T cell clones specific for this peptide described above. GNPs were given coupled to peptide (BDC-2.5 mimotope), IL-10, or both, and compared to blank GNPs of injected controls. […] This provides evidence that the cytokine travels with the GNPs to distant sites when complexed with GNPs, and in bioactive form. This is of enhanced efficiency compared to IL-10 alone.

[2] = tested on: OT-II (ovalbumin peptide (323-339) specific) CD4+ T cells; test: Accumulation of fluorescent cells in LN of CCR7−/− mice; format: in vivo; settings: CCR7−/− compared to wildtype B6 mice
Experimental: In order to determine whether the injected peptide is carried to draining LNs in fluid phase or carried via migratory skin DCs, homozygous knockout mice for the chemokine receptor CCR7 (which mediates DC migration from skin) were treated in the same protocol as above.

Solubility tests = format: physicochemical
Experimental: Given the low incorporation of 10% C19-A3 peptide into GNPs (3-5%) using the 75% methanol-based preparation method, solubility tests were performed to determine the optimal solution for C19-A3 peptide conjugation to gold nanoparticles. […] Therefore, water-based GNP synthesis methods were developed using low (10%) or intermediate (35%) levels of methanol, and vivaspin centrifugation to remove any unbound peptide. GNPs containing 10% C19-A3 peptide and 10% glucose C2 (NP58) or 10% mannose C2 (NP61) were synthesised using a water-based (10% methanol) method (Table 12). HPLC analysis of peptide released from the C19-A3-GNPs following treatment with KCN solution (100 mM), confirmed 100% and 62% incorporation efficiency of C19-A3 peptide, with 31 and 19 peptides bound per GNP, for NP58 and NP61, respectively. An intermediate 35% methanol preparation method was also tested for synthesis of 10% C19-A3, 10% glucose C2 GNPs (NP63). HPLC analysis again confirmed high incorporation of C19-A3 peptide (67%), with 20 peptides bound per GNP.

[3] = tested on: Human immature monocyte derived dendritic cells (iDCs); test: DC maturation (CD80, HLA-DR expression, FACS); format: cell-based; settings: subsequent stimulation with LPS
Experimental: Human immature monocyte derived dendritic cells (iDCs) were incubated with proinsulin C19-A3 coupled GNPs or without GNPs for 4 h. Thereafter, the GNPs were washed off and cells left overnight, either alone or in the presence of 100 ng/ml LPS. Overnight maturation of DCs was measured as increases of CD80 and HLA-DR expression using FACS.
(§1) However, IL-10-GNPs changed the ability of DCs to upregulate HLA-DR and activation molecules CD80 and CD25 upon stimulation with LPS.

[4] = tested on: Human immature monocyte derived dendritic cells (iDCs); test: Cytokine release by DCs after LPS (Luminex); format: cell-based
Experimental: iDCs were also incubated with proinsulin C19-A3 GNPs coupled to glucose (GNPgluc), with proinsulin C19-A3 GNPs coupled to mannose (GNPman), or without GNPs for 4 hrs. Thereafter, cells were washed and subsequently stimulated with 100 ng/ml LPS and left overnight. Supernatants were collected the next day and cytokine (IL-10, IL-12 and TNF) release by DCs measured using Luminex.
as §1

ISQAVHAAHAEINEAGR [ovalbumin peptide, Ovalbumin 323-339 peptide, reference compound]
OT-II cell accumulation and proliferation in draining LN [1]: low levels

YVRPLWVRME [BDC-2.5 mimotope peptide, peptide that mimics the chromogranin A 342-355 peptide, reference compound]
accumulation of proliferating indicator cells in draining LN, distant LNs and spleen (BDC-2.5 CD4+ T cells; 3 days after injection): modest accumulation of proliferating indicator cells

ovalbumin (323-339) GNPs: ovalbumin (323-339) peptide GNPs
fluorescent cells accumulated in the LN [2]: reduced numbers of fluorescent cells

GSLQPLALEGSLQKRGIV [C19-A3 peptide, GSLQPLALEGSLQKRGIV]
solubility in water (Solubility tests): highly soluble

B1: soluble IL-10: Human recombinant IL-10, not bound to nanoparticles (protein, UniProt P22301 19-178, looked up)
Interleukin-10: SPGQGTQSENSCTHFPGNLPNMLRDLRDAFSRVKTFFQMKDQLDNLLLKESLLEDFKGYLGCQALSEMIQFYLEEVMPQAENQDPDIKAHVNSLGENLKTLRLRLRRCHRFLPCENKSKAVEQVKNAFNKLQEKGIYKAMSEFDIFINYIEAYMTMKIRN
maturation of DCs upon LPS (phenotype) [3]: immature phenotype
pro-inflammatory cytokine production (IL-12 and TNF) ([4]; LPS-treated DCs): reduced pro-inflammatory cytokine production
release of IL-10 in the culture ([4]; final IL-10 concentration 100 pg/ml): significantly higher release of IL-10
effect of IL-10 on proliferation of indicator T cells (BDC-2.5 CD4+ T cells; preliminary in vivo experiment, IL-10 at the same concentration): no effect of proliferation
